In ChEMBL document CHEMBL1201862, “PubChem BioAssay data set” (2004):
Calls of active or inactive are those of the source.

Assays:
[1] = biological target: T1, Short transient receptor potential channel 4 (Mus musculus, UniProt Q9QUQ5); experiment: calcium entry via TRPC4 opening agents – cell-based, HEK293 TRPC4/mu-opioid, Fluo-4 calcium, dose response (AID 434937); assay type: functional
T1 sequence (Q9QUQ5 whole entry): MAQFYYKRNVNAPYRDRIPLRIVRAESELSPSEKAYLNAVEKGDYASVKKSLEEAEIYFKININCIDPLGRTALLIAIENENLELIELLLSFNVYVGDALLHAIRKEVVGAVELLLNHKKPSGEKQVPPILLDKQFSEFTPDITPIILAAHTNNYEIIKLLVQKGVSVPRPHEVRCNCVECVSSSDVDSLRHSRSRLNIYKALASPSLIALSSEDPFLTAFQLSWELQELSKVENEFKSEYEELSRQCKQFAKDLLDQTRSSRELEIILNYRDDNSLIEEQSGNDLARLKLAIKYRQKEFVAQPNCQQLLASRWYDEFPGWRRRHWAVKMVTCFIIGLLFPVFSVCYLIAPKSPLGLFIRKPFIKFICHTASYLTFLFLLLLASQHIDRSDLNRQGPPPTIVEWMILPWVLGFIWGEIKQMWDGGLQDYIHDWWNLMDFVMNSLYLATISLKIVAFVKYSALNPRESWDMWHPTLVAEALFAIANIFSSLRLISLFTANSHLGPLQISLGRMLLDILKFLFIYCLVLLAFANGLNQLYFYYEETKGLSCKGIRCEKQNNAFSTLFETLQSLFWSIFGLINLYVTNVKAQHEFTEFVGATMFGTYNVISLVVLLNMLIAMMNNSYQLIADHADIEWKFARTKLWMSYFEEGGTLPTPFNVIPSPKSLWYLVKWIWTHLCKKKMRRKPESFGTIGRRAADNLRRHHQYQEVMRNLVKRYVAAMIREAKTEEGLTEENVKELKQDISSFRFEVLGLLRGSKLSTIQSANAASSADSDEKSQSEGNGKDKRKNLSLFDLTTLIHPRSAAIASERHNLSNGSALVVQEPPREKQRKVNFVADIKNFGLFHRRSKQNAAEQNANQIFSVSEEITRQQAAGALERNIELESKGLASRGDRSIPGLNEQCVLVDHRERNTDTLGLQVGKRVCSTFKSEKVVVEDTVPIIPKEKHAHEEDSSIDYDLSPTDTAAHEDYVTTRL

[2] = biological target: Delta-type opioid receptor (Homo sapiens, UniProt P41143); experiment: Counterscreen for agonists of heterodimerization of the mu 1 (OPRM1) and delta 1 (OPRD1) opioid receptors: Luminescence-based cell-based high throughput dose response assay to identify agonists of OPRD1 homodimerization. [Related pubchem assays (depositor defined):AID504326, AID504355, AID504692, AID504904, AID504905]; assay type: functional
Delta-type opioid receptor, sequence (P41143 whole entry): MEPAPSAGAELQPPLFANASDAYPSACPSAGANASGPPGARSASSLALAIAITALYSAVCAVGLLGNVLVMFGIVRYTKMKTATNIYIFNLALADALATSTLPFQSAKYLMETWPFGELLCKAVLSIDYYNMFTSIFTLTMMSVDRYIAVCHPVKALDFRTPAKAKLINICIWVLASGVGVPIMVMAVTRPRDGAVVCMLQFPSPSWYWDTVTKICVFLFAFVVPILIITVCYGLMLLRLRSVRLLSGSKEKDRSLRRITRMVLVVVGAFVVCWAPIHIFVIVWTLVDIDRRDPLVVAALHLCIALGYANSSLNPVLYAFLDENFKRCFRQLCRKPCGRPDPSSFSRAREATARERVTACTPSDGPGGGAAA

[3] = biological target: Mu-type opioid receptor (Homo sapiens, UniProt P35372); experiment: Counterscreen for agonists of heterodimerization of the mu 1 (OPRM1) and delta 1 (OPRD1) opioid receptors: Luminescence-based cell-based high throughput dose response assay to identify agonists of OPRM1 homodimerization.; assay type: functional;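 also: U2OS cells expressing OPRM1 and beta-arrestin as split beta-galactosidase partners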
Mu-type opioid receptor, sequence (P35372 whole entry): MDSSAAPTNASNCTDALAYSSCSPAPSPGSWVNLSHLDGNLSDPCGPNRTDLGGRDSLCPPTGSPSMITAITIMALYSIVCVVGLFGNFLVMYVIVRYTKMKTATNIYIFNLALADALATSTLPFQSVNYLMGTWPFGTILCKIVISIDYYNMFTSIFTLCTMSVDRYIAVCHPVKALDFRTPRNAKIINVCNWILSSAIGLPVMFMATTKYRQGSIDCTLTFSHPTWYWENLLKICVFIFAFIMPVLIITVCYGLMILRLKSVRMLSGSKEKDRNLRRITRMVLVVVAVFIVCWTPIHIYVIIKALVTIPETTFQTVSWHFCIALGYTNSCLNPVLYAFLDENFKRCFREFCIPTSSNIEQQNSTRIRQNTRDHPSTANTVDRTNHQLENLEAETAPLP

[4] = biological target: 5-hydroxytryptamine receptor 5A (Homo sapiens, UniProt P47898); experiment: Counterscreen for agonists of OPRM1-OPRD1 heterodimerization: luminescence-based cell-based high throughput dose response assay to identify agonists of 5-hydroxytryptamine (serotonin) 5A receptor (HTR5A). [Related pubchem assays (depositor defined):AID504326, AID504355, AID504692, AID504904, AID504905]; assay type: functional
5-hydroxytryptamine receptor 5A, sequence (P47898 whole entry): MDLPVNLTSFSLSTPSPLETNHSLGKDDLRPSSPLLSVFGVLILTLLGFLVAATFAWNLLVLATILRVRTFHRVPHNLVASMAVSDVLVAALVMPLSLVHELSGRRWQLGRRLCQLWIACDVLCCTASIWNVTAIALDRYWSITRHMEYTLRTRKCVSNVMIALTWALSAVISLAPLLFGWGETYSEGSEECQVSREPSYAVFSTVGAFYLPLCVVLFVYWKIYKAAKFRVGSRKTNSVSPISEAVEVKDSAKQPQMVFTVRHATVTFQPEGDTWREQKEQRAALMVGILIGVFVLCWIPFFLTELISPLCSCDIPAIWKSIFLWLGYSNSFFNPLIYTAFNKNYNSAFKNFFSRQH

[5] = system: HEK293; experiment: inhibition of NOD1-driven NF-kB reporter – cell-based, luminescence, uHTS, primary screen (AID 1578); assay type: functional; conditions: Homo sapiens
[6] = system: HEK293; experiment: cells; assay type: functional, cell-based; conditions: Homo sapiens
[7] = system: HEK293; experiment: cells; assay type: functional, cell-based; conditions: Homo sapiens; remark: listed apart in the source
[8] = system: HEK293; experiment: NOD2 signaling inhibitors in MDP-stimulated cells, cell-based, uHTS, luminescence (AID 2001); assay type: functional; conditions: Homo sapiens
[9] = biological target: COUP transcription factor 2 (Homo sapiens, UniProt P24468); experiment: Luminescence-based cell-based high throughput dose response assay to identify inhibitors of COUP-TFII (NR2F2).; assay type: functional;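 also: HEK293 cells transiently cotransfected with COUP-TFII expression vector and reporter; luciferase reporter luminescence driven by COUP-TFII from the pX2-168 reporter plasmid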
COUP transcription factor 2, sequence (P24468 whole entry): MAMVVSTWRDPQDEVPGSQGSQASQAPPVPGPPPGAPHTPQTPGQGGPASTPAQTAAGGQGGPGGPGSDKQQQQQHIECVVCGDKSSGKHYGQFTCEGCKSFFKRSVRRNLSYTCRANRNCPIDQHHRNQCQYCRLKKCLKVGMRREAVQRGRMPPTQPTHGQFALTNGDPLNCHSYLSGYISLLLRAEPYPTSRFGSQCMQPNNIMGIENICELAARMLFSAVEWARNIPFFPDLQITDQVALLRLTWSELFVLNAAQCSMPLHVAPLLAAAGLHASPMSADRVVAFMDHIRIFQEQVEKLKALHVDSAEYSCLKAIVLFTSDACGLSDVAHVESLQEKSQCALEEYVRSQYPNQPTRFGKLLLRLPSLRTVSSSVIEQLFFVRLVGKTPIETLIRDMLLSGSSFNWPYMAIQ

[10] = biological target: Intestinal-type alkaline phosphatase (Mus musculus, UniProt P24822); experiment: PubChem AID 488875; assay type: functional
Intestinal-type alkaline phosphatase (Mus musculus, UniProt P24822), sequence (P24822 whole entry): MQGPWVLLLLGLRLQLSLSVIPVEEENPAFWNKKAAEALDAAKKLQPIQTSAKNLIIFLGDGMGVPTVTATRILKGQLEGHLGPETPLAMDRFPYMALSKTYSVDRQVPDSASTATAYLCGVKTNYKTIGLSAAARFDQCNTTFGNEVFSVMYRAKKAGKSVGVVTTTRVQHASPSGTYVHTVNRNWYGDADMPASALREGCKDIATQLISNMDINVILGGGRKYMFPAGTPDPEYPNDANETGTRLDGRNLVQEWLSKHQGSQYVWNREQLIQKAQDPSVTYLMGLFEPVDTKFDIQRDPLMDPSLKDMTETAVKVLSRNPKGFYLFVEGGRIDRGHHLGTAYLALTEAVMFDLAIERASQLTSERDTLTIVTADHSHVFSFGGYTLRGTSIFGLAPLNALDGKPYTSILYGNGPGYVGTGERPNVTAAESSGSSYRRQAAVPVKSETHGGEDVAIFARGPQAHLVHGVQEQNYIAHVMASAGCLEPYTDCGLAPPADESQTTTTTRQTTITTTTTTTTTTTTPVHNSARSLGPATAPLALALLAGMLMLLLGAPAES

[11] = biological target: T2, Intestinal-type alkaline phosphatase (Homo sapiens, UniProt P09923); experiment: human intestinal alkaline phosphatase activators, dose response, biochemical, luminescence, uHTS hits (AID 463120); assay type: functional
T2 sequence (P09923 whole entry): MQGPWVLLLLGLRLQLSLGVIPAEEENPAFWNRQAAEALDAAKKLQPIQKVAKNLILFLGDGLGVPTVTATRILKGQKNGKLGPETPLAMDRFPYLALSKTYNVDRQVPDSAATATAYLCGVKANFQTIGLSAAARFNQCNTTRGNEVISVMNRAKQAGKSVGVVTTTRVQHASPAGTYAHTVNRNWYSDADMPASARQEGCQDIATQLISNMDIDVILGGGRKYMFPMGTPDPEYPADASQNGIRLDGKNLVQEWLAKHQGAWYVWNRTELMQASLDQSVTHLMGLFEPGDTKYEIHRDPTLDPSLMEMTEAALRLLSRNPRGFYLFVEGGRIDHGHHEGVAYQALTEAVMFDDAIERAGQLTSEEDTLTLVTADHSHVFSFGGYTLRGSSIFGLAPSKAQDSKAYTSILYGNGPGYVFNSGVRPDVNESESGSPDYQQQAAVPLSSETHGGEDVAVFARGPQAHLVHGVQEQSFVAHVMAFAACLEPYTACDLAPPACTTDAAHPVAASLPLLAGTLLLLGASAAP

[12] = biological target: T2, Intestinal-type alkaline phosphatase; experiment: activation of human intestinal alkaline phosphatase – biochemical, luminescent, uHTS hits, set 2, dose response (AID 488817); assay type: functional;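 also: potency of activators that raise enzyme activity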
[13] = biological target: T3, Alkaline phosphatase, tissue-nonspecific isozyme (Homo sapiens, UniProt P05186); experiment: activation of tissue-nonspecific alkaline phosphatase – biochemical, TNAP isozyme, human IAP uHTS hits, selectivity assay for human IAP activator project, dose response (AID 488886); assay type: functional;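 also: potency of compounds raising TNAP activity as a selectivity check on IAP activators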
T3 sequence (P05186 whole entry): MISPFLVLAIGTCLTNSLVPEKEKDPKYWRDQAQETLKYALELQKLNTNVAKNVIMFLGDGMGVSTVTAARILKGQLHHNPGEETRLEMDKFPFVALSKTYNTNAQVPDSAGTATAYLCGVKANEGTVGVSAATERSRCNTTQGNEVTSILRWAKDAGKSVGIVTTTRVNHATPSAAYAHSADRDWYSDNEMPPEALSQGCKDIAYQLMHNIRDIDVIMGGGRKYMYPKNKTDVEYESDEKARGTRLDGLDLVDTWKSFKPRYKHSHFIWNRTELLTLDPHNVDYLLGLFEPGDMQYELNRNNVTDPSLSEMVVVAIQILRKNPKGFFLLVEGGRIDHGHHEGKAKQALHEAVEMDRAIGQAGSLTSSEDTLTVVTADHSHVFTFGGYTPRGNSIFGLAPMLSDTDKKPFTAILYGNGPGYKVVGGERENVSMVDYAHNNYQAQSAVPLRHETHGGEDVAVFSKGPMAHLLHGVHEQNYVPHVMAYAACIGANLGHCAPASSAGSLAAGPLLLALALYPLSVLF

[14] = biological target: T4, DNA repair protein RAD52 homolog (Homo sapiens, UniProt P43351); assay type: functional, biochemical
T4 sequence (P43351 whole entry): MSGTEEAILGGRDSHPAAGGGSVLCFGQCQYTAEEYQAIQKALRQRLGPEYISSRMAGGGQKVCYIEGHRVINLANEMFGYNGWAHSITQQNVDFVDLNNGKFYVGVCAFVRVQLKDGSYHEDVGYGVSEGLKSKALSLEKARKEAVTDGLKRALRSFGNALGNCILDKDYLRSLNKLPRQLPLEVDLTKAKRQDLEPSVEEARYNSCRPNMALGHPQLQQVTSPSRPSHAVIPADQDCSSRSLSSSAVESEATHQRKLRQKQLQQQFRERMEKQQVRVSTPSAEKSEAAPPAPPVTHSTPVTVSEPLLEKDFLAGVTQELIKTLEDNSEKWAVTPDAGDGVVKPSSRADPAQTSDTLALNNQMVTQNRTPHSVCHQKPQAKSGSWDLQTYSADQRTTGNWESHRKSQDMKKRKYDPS

[15] = biological target: Cytochrome P450 2C9 (Homo sapiens, UniProt P11712)
Cytochrome P450 2C9, sequence (P11712 whole entry): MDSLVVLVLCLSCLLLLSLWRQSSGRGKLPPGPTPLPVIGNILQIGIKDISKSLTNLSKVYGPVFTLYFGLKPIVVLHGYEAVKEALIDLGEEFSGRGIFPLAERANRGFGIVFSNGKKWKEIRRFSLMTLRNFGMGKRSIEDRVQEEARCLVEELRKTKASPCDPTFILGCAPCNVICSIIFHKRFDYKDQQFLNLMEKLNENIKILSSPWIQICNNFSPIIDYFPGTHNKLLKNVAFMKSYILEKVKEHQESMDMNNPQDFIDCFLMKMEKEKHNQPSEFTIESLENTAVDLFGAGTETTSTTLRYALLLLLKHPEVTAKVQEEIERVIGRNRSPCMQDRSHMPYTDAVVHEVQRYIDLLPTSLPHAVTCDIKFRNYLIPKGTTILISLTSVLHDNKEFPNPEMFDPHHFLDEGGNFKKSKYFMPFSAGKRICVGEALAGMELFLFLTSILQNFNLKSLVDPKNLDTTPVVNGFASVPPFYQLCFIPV

[16] = biological target: Cytochrome P450 3A4 (Homo sapiens, UniProt P08684);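 also: CYP3A4 tested as one member of a cytochrome P450 panel screen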
Cytochrome P450 3A4, sequence (P08684 whole entry): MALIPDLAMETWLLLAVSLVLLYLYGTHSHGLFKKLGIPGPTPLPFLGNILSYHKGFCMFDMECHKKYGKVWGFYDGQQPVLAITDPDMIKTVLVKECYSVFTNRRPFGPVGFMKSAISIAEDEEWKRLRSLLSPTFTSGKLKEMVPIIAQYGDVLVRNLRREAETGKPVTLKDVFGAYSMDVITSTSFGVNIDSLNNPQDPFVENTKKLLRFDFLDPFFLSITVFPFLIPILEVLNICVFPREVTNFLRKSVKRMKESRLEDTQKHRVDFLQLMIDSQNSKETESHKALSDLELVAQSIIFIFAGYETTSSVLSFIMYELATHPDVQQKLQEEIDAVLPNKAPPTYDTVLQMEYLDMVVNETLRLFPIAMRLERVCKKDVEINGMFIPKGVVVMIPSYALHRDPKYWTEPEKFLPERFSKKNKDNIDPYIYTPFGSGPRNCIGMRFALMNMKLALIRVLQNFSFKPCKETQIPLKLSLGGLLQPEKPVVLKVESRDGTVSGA

[17] = biological target: Ras and Rab interactor 1/Tyrosine-protein kinase ABL1 (Homo sapiens, UniProt P00519+Q13671); assay type: functional;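 also: biochemical TR-FRET dose-response test measuring inhibition of binding between Rin1 and Abl proteins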
[18] = biological target: T5, Bcl-2-related protein A1 (Mus musculus, UniProt Q07440); assay type: functional;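 also: confirmatory dose–response counterscreen on Bfl-1, used to check hits from a UBC13 polyubiquitin inhibitor campaign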
T5 sequence (Q07440 whole entry): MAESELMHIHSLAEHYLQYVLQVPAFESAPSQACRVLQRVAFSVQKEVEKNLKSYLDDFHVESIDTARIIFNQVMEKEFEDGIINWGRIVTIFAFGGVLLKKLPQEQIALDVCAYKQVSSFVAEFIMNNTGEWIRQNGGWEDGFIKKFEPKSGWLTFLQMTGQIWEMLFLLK

[19] = biological target: T6, Ubiquitin-conjugating enzyme E2 N (Homo sapiens, UniProt P61088); assay type: functional
T6 sequence (P61088 whole entry): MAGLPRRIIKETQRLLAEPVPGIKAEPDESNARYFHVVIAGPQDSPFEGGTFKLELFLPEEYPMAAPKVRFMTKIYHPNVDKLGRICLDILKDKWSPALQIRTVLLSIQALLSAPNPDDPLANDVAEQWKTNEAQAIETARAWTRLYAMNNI

[20] = biological target: T6, Ubiquitin-conjugating enzyme E2 N; assay type: functional; remark: listed apart in the source
[21] = THP-1 cell cytotoxicity, dose response, cytotoxicity control for non-replicating M. tuberculosis project (AID 489025); assay type: functional
[22] = Luminescence Cell-Based Dose Retest to Confirm Inhibitors of Cancer Stem Cells. [Related pubchem assays (depositor defined):AID2717, AID2721]; assay type: functional; conditions: Homo sapiens
[23] = biological target: T7, Microphthalmia-associated transcription factor (Homo sapiens, UniProt O75030); experiment: reducers of TRPM1 reporter luminescence, concentration series – cell-based, SK-MEL-5, cherry-picked, set 3, MITF inhibitor project, dose response (AID 493073); assay type: functional;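 also: SK-MEL-5 melanoma cells with luciferase driven by the MITF target TRPM1 promoter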
T7 sequence (O75030 whole entry): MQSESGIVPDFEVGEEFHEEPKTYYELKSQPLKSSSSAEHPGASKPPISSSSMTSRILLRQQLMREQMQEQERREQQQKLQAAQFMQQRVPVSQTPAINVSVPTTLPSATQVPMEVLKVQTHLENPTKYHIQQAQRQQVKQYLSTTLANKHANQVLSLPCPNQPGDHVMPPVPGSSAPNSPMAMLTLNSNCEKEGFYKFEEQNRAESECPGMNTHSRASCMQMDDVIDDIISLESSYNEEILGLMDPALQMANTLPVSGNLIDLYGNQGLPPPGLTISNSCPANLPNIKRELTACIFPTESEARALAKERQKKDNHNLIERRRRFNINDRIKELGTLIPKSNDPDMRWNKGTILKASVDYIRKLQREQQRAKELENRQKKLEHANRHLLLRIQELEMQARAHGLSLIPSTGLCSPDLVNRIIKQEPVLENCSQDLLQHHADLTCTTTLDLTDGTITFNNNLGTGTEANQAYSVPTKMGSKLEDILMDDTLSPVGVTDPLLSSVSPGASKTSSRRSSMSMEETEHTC

[24] = cells; assay type: functional
[25] = system: A-375; experiment: MITF: Counter assay: A375 proliferation Measured in Cell-Based System Using Plate Reader - 2084-03_Inhibitor_Dose_DryPowder_Activity. [Related pubchem assays (depositor defined):AID488944]; assay type: functional; conditions: Homo sapiens
[26] = system: A-375; experiment: proliferation inhibition in MITF-low A375 cells – cell-based, cherry-pick samples, set 2, counter-screen for MITF modulator project, dose response (AID 540335); assay type: functional; conditions: Homo sapiens
[27] = system: HEK293; experiment: cells; conditions: Homo sapiens
[28] = system: HEK293; experiment: cells; conditions: Homo sapiens; remark: listed apart in the source
[29] = blockers of HIV-1 envelope-mediated cell-cell fusion – cherry-pick, dose response (AID 652057); assay type: functional, cell-based
[30] = blockers of HIV-1 ZM109 envelope-driven cell-cell fusion – HeLa effector, CEM target cells, luciferase, cherry-pick, dose response (AID 652058); assay type: functional, cell-based;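 also: luciferase signal from HIV-1 Env mediated cell-cell fusion of effector and target cells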
[31] = off-target signal loss in HeLa-CEM21 co-culture – HeLa F-luc CTL cells, cherry-picked, counter-screen for HIV-1 Env fusion inhibitor project, dose response (AID 652040); assay type: functional, cell-based;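 also: potency for signal decrease marking cytotoxic or nonspecific inhibition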
[32] = HIV-1 AD8 envelope cell-cell fusion blockers – cherry-pick, dose response (AID 652062); assay type: functional, cell-based;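 also: luciferase signal from cell-cell fusion driven by HIV-1 clade B AD8 Env; potency is for inhibitors of fusion seen as a drop in luminescence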

SMILES: CN(C)C(CNC(=O)c1cnc(Cl)c(Cl)c1)c1ccccc1 (stereo not given)
- EC50 [1]: 0.0173 µM (active)
- EC50 [2]: 1.07 µM (active)
- EC50 [3]: 4.67 µM (active)
- EC50 [4]: > 92.4 µM (inactive)

SMILES: C=CC[n+]1c(-c2ccc(Cl)cc2Cl)csc1Nc1c(C)n(C)n(-c2ccccc2)c1=O
- EC50 [5]: 5.29 µM (active)
- IC50 [6]: 6.87 µM (active)
- IC50 [7]: > 20 µM (inactive)
- IC50 [8]: 7.13 µM (active)
- IC50 [9]: 9.47 µM (active)

SMILES: COc1ccccc1CN1CCC(n2nccc2NC(=O)CCCc2ccccc2)CC1
- EC50 [10]: 51.3 µM (active)
- EC50 [11]: 74 µM (active)
- EC50 [12]: 60.4 µM (active)
- EC50 [13]: 75.8 µM (active)

SMILES: CCN(c1ccccc1)S(=O)(=O)c1ccc(C(=O)N(CCCN(C)C)c2nc3cc4c(cc3s2)OCO4)cc1
- EC50 [1]: 5.31 µM (active)
- AC50 [14]: 11.1 µM (active)

SMILES: O=C(c1ccco1)N1CCC2(CC1)CN(C(c1ccccc1)c1ccccc1)C2
- AC50 [15]: 25.1 µM (inconclusive)
- AC50 [16]: inconclusive

SMILES: CC(C)n1cc(CN2CCC(C(=O)Nc3cccc(-c4cccc(Cl)c4)c3)CC2)cn1
- EC50 [10]: 88 µM (active)
- EC50 [11]: 82.8 µM (active)
- EC50 [12]: 67.3 µM (active)
- EC50 [13]: 66.1 µM (active)
- IC50 [17]: 16.4 µM (inactive)

SMILES: CCCCn1c(=O)c(C(=O)Nc2ccccc2S(N)(=O)=O)c(O)c2ccccc21
- IC50 [18]: 2.02 µM (active)
- IC50 [19]: 15.5 µM (active)
- IC50 [20]: > 20 µM (inactive)

SMILES: CC(C)c1ccc(N2C(=O)NC(=O)/C(=C/C=C/c3ccco3)C2=O)cc1
- CC50 [21]: 31.6 µM (active)
- AC50 [22]: 1.81 µM (active)
- AC50 [23]: 5.89 µM (active)
- IC50 [24]: 17.4 µM (active)
- AC50 [25]: > 35 µM (active)
- AC50 [26]: > 35 µM (active)
- EC50 [27]: > 59.6 µM (inactive)
- EC50 [28]: > 59.6 µM (inactive)

SMILES: CCCNC(=O)c1ccccc1NC(=O)c1ccccc1N(C)S(=O)(=O)c1ccccc1
- AC50 [29]: 1.83 µM (active)
- AC50 [30]: 3.19 µM (active)
- AC50 [31]: 3.2 µM (active)
- AC50 [32]: 8.47 µM (active)
- EC50 [27]: > 59.6 µM (inactive)
- EC50 [28]: > 59.6 µM (inactive)

SMILES: Cc1nc2c(c(-c3ccccc3)c1C#N)C(=O)c1ccccc1-2
- AC50 [16]: inconclusive
